Measurements: publication PMC12591484 (PLOS One, 2025)
Marks after values point to notes of the source that are not given here.

Tests used:
[1] = molecular target: T1, α1β3γ2L246C GABAA receptors (Homo sapiens, UniProt P14867+P18507+P28472, L285C); test: Drug protection from pCMBS modification (SCAMP); type: cell-based; design: key: +: SCAMP is Substituted Cysteine Modification and Protection and is positive when adding anesthetic to cysteine modifier significantly reduces persistent post-exposure effects due to covalent modification; -: Negative results are indicated by “–“ symbols; details: results of this study (*); etomidate cell also cites [9]
T1 construct: expressed in transfected cells; host or cells: Xenopus oocytes injected with capped mRNAs mixed 1α:1β:5γ
Procedure: (§1) Experiments were performed in ND-96 buffer at room temperature (20–22°C). Oocytes were placed in a low-volume (30µl) flow chamber and impaled with borosilicate microelectrodes filled with 3M KCl (resistance 0.5–3 MΩ) and voltage-clamped at −50 mV (model OC-725C; Warner Instruments, Hamden, CT, USA). Superfusate solutions in ND-96 were delivered at 2 ml/min from glass syringe reservoirs via computer-controlled valves (VC-8; Warner Instruments), a micro-manifold (ALA-VM8; ALA Scientific Instruments, Farmingdale, NY, USA), and PTFE tubing. Currents were digitized at 200 Hz on a computer running ClampEx v8.0 software (Molecular Devices, San Jose, CA, USA). Digitized traces were filtered with a 10-Hz low-pass Bessel function, leak corrected and analyzed for peak amplitude off-line using Clampfit v8 software (Molecular Devices).
(§2) Drug protection from pCMBS modification was assessed under pCMBS exposure conditions that produced approximately half of the maximal modification ratio for each mutant receptor, and a least a value of 3. This approach balanced the magnitude of functional modification signals (smaller with less pCMBS exposure) against the challenge of using a reversibly bound ligand to competitively block an irreversible covalent cysteine-modifying reaction. […] Each oocyte was used in a single SCAMP experiment. […] Etomidate was used as a positive control for anesthetic protection in α1M236C and β3M286C mutants and as a negative control in α1S270C, α1A291C, β3L231C, γ2S301C, γ2I242C, and γ2L246C mutants. R-mTFD-MPAB was used as a positive control in α1S270C, α1A291C, β3L231C, and γ2LS301C mutants and as a negative control in α1M236C and β3M286C mutants. For each cysteine mutant and protective drug combination, five oocytes were studied.
(§3) Non-linear least squares fits and statistical analyses were performed in Prism 10.4.0. (GraphPad Software, San Diego, CA, USA). […] Protection (steric inhibition of pCMBS modification) was inferred when anesthetics produced significant reductions in modification ratios relative to control (no anesthetic) values. The statistical significance threshold was p < 0.05.

[2] = test system: α1β2N265Cγ2L receptors; details: at the tested concentration; etomidate binds extremely weakly; cited from earlier work
[3] = molecular target: T2, α1β3γ2S301C GABAA receptors (Homo sapiens, UniProt P14867+P18507+P28472, S340C); test: Drug protection from pCMBS modification (SCAMP); type: cell-based; design: key: +: SCAMP is Substituted Cysteine Modification and Protection and is positive when adding anesthetic to cysteine modifier significantly reduces persistent post-exposure effects due to covalent modification; -: Negative results are indicated by “–“ symbols; details: results of this study (*)
T2 construct: expressed in transfected cells; host or cells: Xenopus oocytes injected with capped mRNAs mixed 1α:1β:5γ
T2 sequence (P14867 28-456): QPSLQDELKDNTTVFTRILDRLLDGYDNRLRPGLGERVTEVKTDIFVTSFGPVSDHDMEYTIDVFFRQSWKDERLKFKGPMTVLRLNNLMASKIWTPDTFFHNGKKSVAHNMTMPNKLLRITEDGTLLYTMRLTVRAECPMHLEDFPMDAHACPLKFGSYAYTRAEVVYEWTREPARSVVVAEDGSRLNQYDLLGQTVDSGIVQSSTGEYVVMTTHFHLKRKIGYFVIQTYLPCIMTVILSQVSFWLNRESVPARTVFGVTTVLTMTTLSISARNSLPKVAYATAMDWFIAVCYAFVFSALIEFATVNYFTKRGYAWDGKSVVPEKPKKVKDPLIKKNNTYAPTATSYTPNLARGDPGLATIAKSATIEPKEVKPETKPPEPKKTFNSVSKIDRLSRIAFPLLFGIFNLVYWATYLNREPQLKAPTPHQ
T2 sequence (P28472 26-473): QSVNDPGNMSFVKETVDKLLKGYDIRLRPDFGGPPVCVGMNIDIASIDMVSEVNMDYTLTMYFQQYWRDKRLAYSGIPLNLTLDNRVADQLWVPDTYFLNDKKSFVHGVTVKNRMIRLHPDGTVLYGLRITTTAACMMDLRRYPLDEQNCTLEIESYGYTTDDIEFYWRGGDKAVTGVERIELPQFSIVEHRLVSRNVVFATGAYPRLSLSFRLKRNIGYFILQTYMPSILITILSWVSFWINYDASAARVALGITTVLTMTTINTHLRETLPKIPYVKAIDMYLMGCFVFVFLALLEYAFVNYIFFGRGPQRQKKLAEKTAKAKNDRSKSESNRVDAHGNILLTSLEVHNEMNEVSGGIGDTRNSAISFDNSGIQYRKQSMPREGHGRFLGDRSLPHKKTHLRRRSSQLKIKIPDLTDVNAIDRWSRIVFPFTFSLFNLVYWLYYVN
T2 sequence (P18507 40-475 S340C): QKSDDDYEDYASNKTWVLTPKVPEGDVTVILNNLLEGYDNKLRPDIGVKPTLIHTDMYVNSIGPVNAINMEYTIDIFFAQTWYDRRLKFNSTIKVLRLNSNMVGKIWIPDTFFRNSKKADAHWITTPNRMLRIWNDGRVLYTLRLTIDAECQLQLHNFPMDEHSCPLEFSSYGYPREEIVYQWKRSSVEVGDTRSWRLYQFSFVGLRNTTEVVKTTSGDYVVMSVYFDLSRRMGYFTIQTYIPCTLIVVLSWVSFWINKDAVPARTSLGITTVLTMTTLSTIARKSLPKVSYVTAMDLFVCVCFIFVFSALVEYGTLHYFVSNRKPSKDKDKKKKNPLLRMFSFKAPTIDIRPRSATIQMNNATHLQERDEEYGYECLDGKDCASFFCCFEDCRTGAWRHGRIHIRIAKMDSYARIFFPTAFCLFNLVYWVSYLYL
Procedure: as §1, §2, §3

[4] = molecular target: T3, α1S270Cβ3γ2L GABAA receptors (Homo sapiens, UniProt P14867+P18507+P28472, S297C); test: Drug protection from pCMBS modification (SCAMP); type: cell-based; design: key: +: SCAMP is Substituted Cysteine Modification and Protection and is positive when adding anesthetic to cysteine modifier significantly reduces persistent post-exposure effects due to covalent modification; -: Negative results are indicated by “–“ symbols; details: results of this study (*)
T3 construct: expressed in transfected cells; host or cells: Xenopus oocytes injected with capped mRNA, 1α:1β:5γ
Procedure: as §1, §2, §3

T3 sequence (P14867 28-456 S297C, one chain of several): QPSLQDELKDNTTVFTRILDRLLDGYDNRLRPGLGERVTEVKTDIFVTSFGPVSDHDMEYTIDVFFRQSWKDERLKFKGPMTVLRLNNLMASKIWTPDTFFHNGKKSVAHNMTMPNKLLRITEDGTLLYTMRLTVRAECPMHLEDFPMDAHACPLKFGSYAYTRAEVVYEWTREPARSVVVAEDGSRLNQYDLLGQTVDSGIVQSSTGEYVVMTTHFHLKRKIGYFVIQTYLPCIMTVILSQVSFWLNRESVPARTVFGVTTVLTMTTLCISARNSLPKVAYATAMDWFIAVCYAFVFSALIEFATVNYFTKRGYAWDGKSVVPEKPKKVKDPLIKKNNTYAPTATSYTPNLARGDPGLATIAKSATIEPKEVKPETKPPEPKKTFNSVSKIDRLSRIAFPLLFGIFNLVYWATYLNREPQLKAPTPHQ
T3 sequence (P18507 40-475, one chain of several): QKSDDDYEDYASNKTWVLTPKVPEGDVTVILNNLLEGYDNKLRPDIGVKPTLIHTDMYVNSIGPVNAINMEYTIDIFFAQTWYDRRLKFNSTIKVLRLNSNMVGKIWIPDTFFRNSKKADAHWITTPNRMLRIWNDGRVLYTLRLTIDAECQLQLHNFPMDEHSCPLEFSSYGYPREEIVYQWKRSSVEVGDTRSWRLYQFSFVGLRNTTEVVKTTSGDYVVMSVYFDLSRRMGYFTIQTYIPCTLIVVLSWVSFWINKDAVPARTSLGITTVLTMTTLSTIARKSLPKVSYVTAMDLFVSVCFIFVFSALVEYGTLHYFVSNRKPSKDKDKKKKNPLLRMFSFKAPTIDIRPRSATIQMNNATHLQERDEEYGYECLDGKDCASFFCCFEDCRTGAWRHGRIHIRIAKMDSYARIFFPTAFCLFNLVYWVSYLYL
T1 sequence (P18507 40-475 L285C, one chain of several): as the sequence (P18507 40-475, one chain of several) above, with L246C counted along it

In the case of `CC(C)c1cc(C2(C(F)(F)F)N=N2)cc(C(C)C)c1CO` [pTFD-di-iPr-BnOH], the “SCAMP result, γ2– (M1) L246” value [1] was “+*”.
For `CCOC(=O)c1cncn1[C@H](C)c1ccccc1` [etomidate, R-etomidate], the “SCAMP protection at β N265C” value [2] is given as “fails to protect”.
For `C=CCC1(c2cccc(C3(C(F)(F)F)N=N3)c2)C(=O)NC(=O)N(C)C1=O` (stereo not shown) [R-mTFD-MPAB, R-5-allyl-1-methyl-5-(m-trifluoromethyl-diazirynylphenyl) barbituric acid], the “SCAMP result, γ2+ (M2, M3) S301” value [3] was “+*” and the “SCAMP result, α1+ (M2, M3) S270” value [4] was “+*”.
